# Test results taken from ChEMBL document CHEMBL5506055, “Hit-to-Lead Optimization of the Natural Product Oridonin as Novel NLRP3 Inflammasome Inhibitors with Potent Anti-Inflammation Activity” (J Med Chem, 2024).
# The source made the active and inactive calls. The rule behind the calls is not given here.
# Tests used:
# [1] = biological target: NACHT, LRR and PYD domains-containing protein 3 (Mus musculus) (UniProt Q8R4B8); test: Inhibition of NLRP3 inflammasome activation in LPS/ATP-induced C57BL/6 mouse BMDMs assessed as reduction in IL-1beta secretion at 100 nM preincubated with LPS for 4 hrs followed by compound addition for 30 mins and further stimulated with ATP for 30 mins by ELISA relative to control; type: cell-based; conditions: BMDM, time 1.0 hrs
# [2] = biological target: NACHT, LRR and PYD domains-containing protein 3 (Mus musculus) (UniProt Q8R4B8); test: Inhibition of NLRP3 inflammasome activation in LPS/ATP-induced C57BL/6 mouse BMDMs assessed as reduction in IL-1beta secretion at 200 nM preincubated with LPS for 4 hrs followed by compound addition for 30 mins and further stimulated with ATP for 30 mins by ELISA relative to control; type: cell-based; conditions: BMDM, time 1.0 hrs
# [3] = biological target: NACHT, LRR and PYD domains-containing protein 3 (Mus musculus) (UniProt Q8R4B8); test: Inhibition of NLRP3 inflammasome activation in LPS/ATP-induced C57BL/6 mouse BMDMs assessed as reduction in IL-1beta secretion at 500 nM preincubated with LPS for 4 hrs followed by compound addition for 30 mins and further stimulated with ATP for 30 mins by ELISA relative to control; type: cell-based; conditions: BMDM, time 1.0 hrs
# [4] = biological target: T1, NACHT, LRR and PYD domains-containing protein 3 (Mus musculus, UniProt Q8R4B8); test: Inhibition of NLRP3 inflammasome activation in LPS/ATP-induced C57BL/6 mouse BMDMs assessed as reduction in IL-1beta secretion preincubated with LPS for 4 hrs followed by compound addition for 30 mins and further stimulated with ATP for 30 mins by ELISA; type: cell-based, BMDM
# [5] = biological target: T1, NACHT, LRR and PYD domains-containing protein 3; test: Inhibition of NLRP3 inflammasome activation in mouse J774.A1 cells; type: cell-based
# [6] = biological target: NACHT, LRR and PYD domains-containing protein 3 (Mus musculus) (UniProt Q8R4B8); conditions: BMDM, dose 10.0 nM, time 1.0 hrs
# Mus musculus = test: Antiinflammatory activity in MSU-induced C57BL/6 mouse model of arthritis assessed as reduction in inflammatory cell infiltration at 12.5 mg/kg, iv measured after 24 hrs; type: functional, organism-based
# hERG (KCNH2) = hERG (KCNH2) (Homo sapiens, UniProt Q12809); test: Inhibition of human ERG expressed in CHO cells at 40 uM relative to control; type: toxicity, cell-based; conditions: CHO cells that express human ERG
# [7] = Half-life in ICR mouse at 1 mg/kg, iv measured upto 24 hrs by LC-MS/MS method; type: ADME, organism-based; conditions: in vivo
# [8] = Stability in mouse liver microsomes assessed as half life preincubated for 5 mins with NADPH followed by compound addition and measured upto 120 mins by LC-MS/MS analysis; type: ADME, Microsome; conditions: time < 125 min
# [9] = Oral bioavailability in ICR mouse at 10 mg/kg measured upto 24 hrs by LC-MS/MS method; type: ADME, organism-based; conditions: ICR, in vivo
# [10] = Cmax in ICR mouse at 10 mg/kg, po measured upto 24 hrs by LC-MS/MS method; type: ADME, organism-based; conditions: in vivo
# [11] = biological target: Voltage-gated inwardly rectifying potassium channel KCNH2 (Homo sapiens, UniProt Q12809); test: Inhibition of human ERG expressed in CHO cells; type: toxicity, cell-based
# [12] = Clearance in ICR mouse at 1 mg/kg, iv measured upto 24 hrs by LC-MS/MS method; type: ADME, organism-based; conditions: in vivo
# [13] = Stability in rat plasma assessed as half life measured upto 8 hrs; type: ADME, cell-free
# [14] = Stability in mouse plasma assessed as half life measured upto 8 hrs; type: ADME, cell-free
# [15] = Stability in human plasma assessed as half life measured upto 8 hrs; type: ADME, cell-free
# [16] = AUC in ICR mouse at 1 mg/kg, iv measured upto 24 hrs by LC-MS/MS method; type: ADME, organism-based; conditions: ICR, in vivo
# [17] = Stability in rat liver microsomes assessed as half life preincubated for 5 mins with NADPH followed by compound addition and measured upto 120 mins by LC-MS/MS analysis; type: ADME, Microsome; conditions: time < 125 min
# [18] = AUC in ICR mouse at 10 mg/kg, po measured upto 24 hrs by LC-MS/MS method; type: ADME, organism-based; conditions: ICR, in vivo
# [19] = Half-life in ICR mouse at 10 mg/kg, po measured upto 24 hrs by LC-MS/MS method; type: ADME, organism-based; conditions: in vivo
# [20] = Stability in human liver microsomes assessed as half life preincubated for 5 mins with NADPH followed by compound addition and measured upto 120 mins by LC-MS/MS analysis; type: ADME, Microsome; conditions: time < 125 min
# [21] = Selectivity index, ratio of CC50 for cytotoxicity against C57BL/6 mouse BMDMs to IC50 for inhibition of NLRP3 inflammasome activation in C57BL/6 mouse BMDMs; type: toxicity; conditions: bone marrow-derived macrophages (BMDMs), read-out: Ratio CC50/IC50
# T1 sequence (Q8R4B8 whole entry, the tested form may be a part): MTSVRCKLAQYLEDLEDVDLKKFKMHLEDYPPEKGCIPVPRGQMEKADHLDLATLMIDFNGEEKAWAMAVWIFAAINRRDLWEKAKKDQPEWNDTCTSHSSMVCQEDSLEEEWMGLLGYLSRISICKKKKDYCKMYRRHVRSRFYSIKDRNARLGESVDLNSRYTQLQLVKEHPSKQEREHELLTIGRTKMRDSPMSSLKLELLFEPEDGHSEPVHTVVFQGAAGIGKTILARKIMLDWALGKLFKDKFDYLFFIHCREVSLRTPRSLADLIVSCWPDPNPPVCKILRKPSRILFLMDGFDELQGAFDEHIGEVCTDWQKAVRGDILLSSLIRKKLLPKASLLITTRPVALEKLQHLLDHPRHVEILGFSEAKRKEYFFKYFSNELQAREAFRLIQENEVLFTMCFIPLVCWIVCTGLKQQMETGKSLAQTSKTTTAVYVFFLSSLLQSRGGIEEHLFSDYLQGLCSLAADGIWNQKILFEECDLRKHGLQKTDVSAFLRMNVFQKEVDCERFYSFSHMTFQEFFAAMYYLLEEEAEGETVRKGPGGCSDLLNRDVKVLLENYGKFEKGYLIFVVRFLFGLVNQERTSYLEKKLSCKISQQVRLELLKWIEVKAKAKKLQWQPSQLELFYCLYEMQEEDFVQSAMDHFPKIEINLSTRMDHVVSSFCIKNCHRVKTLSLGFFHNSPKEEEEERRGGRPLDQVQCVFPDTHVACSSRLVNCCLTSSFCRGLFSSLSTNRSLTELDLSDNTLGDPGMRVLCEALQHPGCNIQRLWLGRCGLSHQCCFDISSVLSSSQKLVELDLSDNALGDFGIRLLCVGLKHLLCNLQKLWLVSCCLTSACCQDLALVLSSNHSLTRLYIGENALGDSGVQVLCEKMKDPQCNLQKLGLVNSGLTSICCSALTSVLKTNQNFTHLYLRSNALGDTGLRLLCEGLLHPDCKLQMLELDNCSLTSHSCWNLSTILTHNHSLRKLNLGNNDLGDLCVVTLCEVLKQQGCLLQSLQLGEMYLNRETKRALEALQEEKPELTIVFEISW
# Sequence of NACHT, LRR and PYD domains-containing protein 3 (Mus musculus) (Q8R4B8 whole entry, the tested form may be a part): as above
# Sequence of hERG (KCNH2) (Q12809 whole entry): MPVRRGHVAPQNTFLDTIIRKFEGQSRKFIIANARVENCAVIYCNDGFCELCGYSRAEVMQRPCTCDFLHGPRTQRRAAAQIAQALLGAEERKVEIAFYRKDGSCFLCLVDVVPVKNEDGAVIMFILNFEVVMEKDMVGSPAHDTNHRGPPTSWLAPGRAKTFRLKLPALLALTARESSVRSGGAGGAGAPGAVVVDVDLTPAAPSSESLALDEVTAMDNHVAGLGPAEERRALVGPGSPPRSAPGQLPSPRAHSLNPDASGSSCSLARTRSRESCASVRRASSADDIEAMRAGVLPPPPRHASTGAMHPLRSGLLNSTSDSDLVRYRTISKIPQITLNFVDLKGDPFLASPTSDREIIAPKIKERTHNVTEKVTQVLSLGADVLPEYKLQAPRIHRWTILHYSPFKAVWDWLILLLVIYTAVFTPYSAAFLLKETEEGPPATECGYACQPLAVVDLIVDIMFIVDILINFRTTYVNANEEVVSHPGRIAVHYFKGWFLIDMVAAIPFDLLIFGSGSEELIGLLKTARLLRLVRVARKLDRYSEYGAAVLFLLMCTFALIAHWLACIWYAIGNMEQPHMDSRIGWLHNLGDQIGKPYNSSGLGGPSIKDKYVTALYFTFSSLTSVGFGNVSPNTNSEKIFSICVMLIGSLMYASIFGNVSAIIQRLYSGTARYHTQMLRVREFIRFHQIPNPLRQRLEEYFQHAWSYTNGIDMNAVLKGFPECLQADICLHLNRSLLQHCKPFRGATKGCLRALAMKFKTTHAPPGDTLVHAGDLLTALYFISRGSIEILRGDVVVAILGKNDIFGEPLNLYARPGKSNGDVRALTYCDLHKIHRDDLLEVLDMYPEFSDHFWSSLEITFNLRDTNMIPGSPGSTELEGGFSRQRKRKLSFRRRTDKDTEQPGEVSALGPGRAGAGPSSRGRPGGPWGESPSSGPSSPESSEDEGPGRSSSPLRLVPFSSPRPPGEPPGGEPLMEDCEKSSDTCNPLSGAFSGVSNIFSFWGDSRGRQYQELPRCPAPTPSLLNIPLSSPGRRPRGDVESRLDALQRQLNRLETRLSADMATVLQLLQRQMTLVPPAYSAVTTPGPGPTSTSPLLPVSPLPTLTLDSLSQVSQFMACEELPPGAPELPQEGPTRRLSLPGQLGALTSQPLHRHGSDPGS
# Sequence of Voltage-gated inwardly rectifying potassium channel KCNH2 (Q12809 whole entry): as above
inhibition [1] [%],inhibition [2] [%],inhibition [3] [%],IC50 [4] [µM],Compound,also measured
33.3,38,65.1,0.242,C=C1C(=O)[C@]23[C@H](O)[C@H]1CC[C@H]2[C@]12C=CCC(C)(C)[C@H]1[C@H](O)[C@@]3(OCCC(=O)NC1CC1)OC2,–
50.6,83,89.5,0.0993,C=C1C(=O)[C@]23[C@H](O)[C@H]1CC[C@H]2[C@]12C=CCC(C)(C)[C@H]1[C@H](O)[C@@]3(OCc1cnco1)OC2,–
42.3,56,84.7,0.137,C=C1C(=O)[C@]23[C@H](O)[C@H]1CC[C@H]2[C@]12C=CCC(C)(C)[C@H]1[C@H](O)[C@@]3(OCCC(=O)NC1CCCC1)OC2,–
–,–,–,–,CS(=O)(=O)/C=C/C#N,IC50 [5]: 0.1 µM
40.7,59.9,79.1,0.137,C=C1C(=O)[C@]23[C@H](O)[C@H]1CC[C@H]2[C@]12C=CCC(C)(C)[C@H]1[C@H](O)[C@@]3(OCCC(=O)NCC(C)C)OC2,–
12.9,25.5,55.4,0.406,C=C1C(=O)[C@]23[C@H](O)[C@H]1CC[C@H]2[C@]12C=CCC(C)(C)[C@H]1[C@H](O)[C@@]3(OCC(=O)O)OC2,–
46.2,56.7,63.2,1.89,C=C1C(=O)[C@]23[C@H](O)[C@H]1CC[C@H]2[C@]12C=CCC(C)(C)[C@H]1[C@H](O)[C@@]3(OCc1nccs1)OC2,–
20.3,47.2,60,0.283,C=C1C(=O)[C@]23[C@H](O)[C@H]1CC[C@H]2[C@]12C=CCC(C)(C)[C@H]1[C@H](O)[C@@]3(OCCC(=O)NCCC)OC2,–
45,60.3,85.3,0.0985,C=C1C(=O)[C@]23[C@H](O)[C@H]1CC[C@H]2[C@]12C=CCC(C)(C)[C@H]1[C@H](O)[C@@]3(OCCC(=O)N1CCN(C)CC1)OC2,–
47.3,56,77.3,0.1,C=C1C(=O)[C@]23[C@H](O)[C@H]1CC[C@H]2[C@]12C=CCC(C)(C)[C@H]1[C@H](O)[C@@]3(OCc1ccncc1)OC2,–
44.2,78.8,96.5,0.0971,C=C1C(=O)[C@]23[C@H](O)[C@H]1CC[C@H]2[C@]12C=CCC(C)(C)[C@H]1[C@H](O)[C@@]3(OCc1cocn1)OC2,–
–,–,–,–,CC(C)(O)c1coc(S(=O)(=O)NC(=O)Nc2c3c(cc4c2CCC4)CCC3)c1,inhibition [6]: 80.5%; Activity (Mus musculus): Active
18.5,36.4,66.2,0.292,C=C1C(=O)[C@]23[C@H](O)[C@H]1CC[C@H]2[C@]12C=CCC(C)(C)[C@H]1[C@H](O)[C@@]3(OCCC(=O)NC1CCOCC1)OC2,–
25.4,67.4,71.6,0.178,C=C1C(=O)[C@]23[C@H](O)[C@H]1CC[C@H]2[C@]12C=CCC(C)(C)[C@H]1[C@H](O)[C@@]3(OCCC(=O)N(CCC)CCC)OC2,–
–,–,–,0.014,CC(C)n1ccc(S(=O)(=O)NC(=O)Nc2c3c(cc4c2CCC4)CCC3)n1 [INZOMELID],inhibition [6]: 42.7%
–,–,–,–,COc1cc(N)c(Cl)cc1C(=O)NC1CCN(CCCOc2ccc(F)cc2)CC1OC (stereo unspecified) [CISAPRIDE],inhibition at 40 µM (hERG (KCNH2)): 98.7%
0.2,14.3,41.2,0.78,C=C1C(=O)[C@]23[C@H](O)[C@H]1CC[C@H]2[C@@]12CO[C@]3(O)[C@@H](O)[C@@H]1C(C)(C)CC[C@@H]2O [ORIDONIN],–
24.5,44.5,68.4,0.232,"C=C1C(=O)[C@]23[C@H](O)[C@H]1CC[C@H]2[C@]12C=CCC(C)(C)[C@H]1[C@H](O)C3(OCc1cccnc1)OC2 (single isomer, unassigned)",–
52.6,62.1,93.7,0.102,C=CCNC(=O)CCO[C@@]12OC[C@]3(C=CCC(C)(C)[C@H]3[C@@H]1O)[C@@H]1CC[C@H]3C(=C)C(=O)[C@]12[C@@H]3O,–
36.4,55.9,79.1,0.161,C=C1C(=O)[C@]23[C@H](O)[C@H]1CC[C@H]2[C@]12C=CCC(C)(C)[C@H]1[C@H](O)[C@@]3(OCCC(=O)N1CCCC1)OC2,–
77.3,93.9,97.3,0.0502,C=C1C(=O)[C@]23[C@H](O)[C@H]1CC[C@H]2[C@]12C=CCC(C)(C)[C@H]1[C@H](O)[C@@]3(OCc1cncs1)OC2,half-life [7]: 1.5 h; half-life [8]: 3.13 min; bioavailability [9]: 0.64%; Cmax [10]: 0.0114 µg/mL; IC50 [11]: > 40 µM; clearance [12]: 2.95 L/h/kg; inhibition at 40 µM (hERG (KCNH2)): 43.3%; half-life [13]: 1.74 h; half-life [14]: 1.9 h; half-life [15]: 5.99 h; AUC at 24 h [16]: 0.337 µg·h/mL; half-life [17]: 5.56 min; AUC at 24 h [18]: 0.0108 µg·h/mL; half-life [19]: 1.36 h; half-life [20]: 4.22 min
27.2,43.1,76.7,0.216,C=C1C(=O)[C@]23[C@H](O)[C@H]1CC[C@H]2[C@]12C=CCC(C)(C)[C@H]1[C@H](O)[C@@]3(OCCC(=O)NC)OC2,–
62.7,83.9,95.1,0.0722,C=C1C(=O)[C@]23[C@H](O)[C@H]1CC[C@H]2[C@]12C=CCC(C)(C)[C@H]1[C@H](O)[C@@]3(OCCC(=O)N1CCOCC1)OC2,selectivity ratio [21]: 30.2
56.7,78.2,89,0.103,C=C1C(=O)[C@]23[C@H](O)[C@H]1CC[C@H]2[C@]12C=CCC(C)(C)[C@H]1[C@H](O)[C@@]3(OCCC(=O)N(C)C)OC2,–
60.9,79.6,93.9,0.0805,C=C1C(=O)[C@]23[C@H](O)[C@H]1CC[C@H]2[C@]12C=CCC(C)(C)[C@H]1[C@H](O)[C@@]3(OCc1nc(-c3ccccc3)cs1)OC2,–
